Assay results taken from patent US20060287251A1, “Combination therapy for glycaemic control” (priority 2003, published 2006).

Legend:
[1] = In vivo inactivation (degradation) after oral administration to Wistar rats, LC/MS; conditions: LC/MS of plasma
Experimental: Glutaminyl thiazolidine was administered to Wistar rats orally. After application of placebo or glutaminyl thiazolidine, arterial blood samples were taken at 2.5, 5, 7.5, 10, 15, 20, 40, 60 and 120 min from the carotid catheter of the conscious unrestrained rats to determine the formation of degradation products of glutaminyl thiazolidine. For analysis, simple solid phase extraction procedure on C18 cartridges was used to isolate the compounds of interest from the plasma. The extracts were analysed using reversed-phase liquid chromatography on Lichrospher 60 RP Select B column hyphenated with tandem mass spectrometry operating in the APCI positive mode. An internal standard method was used for quantification.

[2] = target: T1, recombinant human prolyl oligopeptidase (Homo sapiens, UniProt P48147); test: Cross reacting enzymes: prolyl oligopeptidase; type: biochemical; conditions: concentration range 1*10^−4 M-5*10^−8 M
T1 construct: made in house; host or cells: E. coli
T1 sequence (P48147 1-710): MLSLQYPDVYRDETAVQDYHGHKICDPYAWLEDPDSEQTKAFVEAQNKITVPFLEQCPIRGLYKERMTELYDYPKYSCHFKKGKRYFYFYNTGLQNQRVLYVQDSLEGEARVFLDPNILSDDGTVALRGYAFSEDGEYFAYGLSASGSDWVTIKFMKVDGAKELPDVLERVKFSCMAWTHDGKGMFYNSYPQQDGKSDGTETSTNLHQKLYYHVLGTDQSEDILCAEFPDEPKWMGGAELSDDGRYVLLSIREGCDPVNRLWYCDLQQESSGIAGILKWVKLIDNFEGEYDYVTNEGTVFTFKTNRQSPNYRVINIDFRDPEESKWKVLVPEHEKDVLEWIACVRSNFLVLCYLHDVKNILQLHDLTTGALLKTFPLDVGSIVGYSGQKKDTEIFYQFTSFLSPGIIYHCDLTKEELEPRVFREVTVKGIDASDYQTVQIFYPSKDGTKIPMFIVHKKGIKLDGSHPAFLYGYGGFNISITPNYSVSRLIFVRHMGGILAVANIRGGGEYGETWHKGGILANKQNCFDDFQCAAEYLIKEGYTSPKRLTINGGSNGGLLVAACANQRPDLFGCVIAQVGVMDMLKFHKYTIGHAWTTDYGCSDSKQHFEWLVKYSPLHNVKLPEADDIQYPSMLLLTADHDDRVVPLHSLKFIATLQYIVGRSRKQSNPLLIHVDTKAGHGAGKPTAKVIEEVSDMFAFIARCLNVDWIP
Experimental: (§1) Glutaminyl pyrrolidine or glutaminyl thiazolidine were tested for their cross reacting potency against dipeptidyl peptidase I, prolyl oligopeptidase and prolidase.
Prolyl oligopeptidase (EC 3.4.21.26) is a serine type endoprotease which cleaves off peptides at the N-terminal part of the Xaa-Pro bond (Walter, R., Shlank, H., Glass, J. D., Schwartz, I. L. & Kerenyi, T. D., 1971, Science, 173, 827-829). Substrates are peptides with a molecular weight up to 3000 Da. The enzyme used was a recombinant human prolyl oligopeptidase. Recombinant expression was performed in E. coli under standard conditions as described elsewhere in the state of the art. 100 μL glutaminyl pyrrolidine or glutaminyl thiazolidine in an concentration range of 1*10^−4 M-5*10^−8 M were admixed with 100 μL buffer solution (40 mM HEPES, pH 7.6, 0.015% Brij, 1 mM DTT) and 20 μL POP solution. The assay mixture was pre-incubated at 30° C. for 15 min After pre-incubation, 50 μL glycylprolylprolyl-4-nitroaniline solution (0.29 mM) were added and measurement of yellow color development due to 4-nitroaniline release was performed at 30° C. and λ=405 nm for 10 min using a plate reader (sunrise, Tecan, Crailsheim, Germany). The IC 50-values were calculated using Graphit 4.0.15 (Erithacus Software, Ltd., UK). No inhibition of POP activity by glutaminyl pyrrolidine or glutaminyl thiazolidine was found.

[3] = target: T2, Prolidase from porcine kidney (Sus scrofa, UniProt A0A5G2QQV1); test: Cross reacting enzymes: prolidase; type: biochemical; conditions: substrate Ile-Pro-OH
T2 construct: Prolidase from porcine kidney (ICN Biomedicals, Eschwege, Germany); purchased ICN Biomedicals, Eschwege, Germany; host or cells: porcine kidney
T2 sequence (A0A5G2QQV1 1-463): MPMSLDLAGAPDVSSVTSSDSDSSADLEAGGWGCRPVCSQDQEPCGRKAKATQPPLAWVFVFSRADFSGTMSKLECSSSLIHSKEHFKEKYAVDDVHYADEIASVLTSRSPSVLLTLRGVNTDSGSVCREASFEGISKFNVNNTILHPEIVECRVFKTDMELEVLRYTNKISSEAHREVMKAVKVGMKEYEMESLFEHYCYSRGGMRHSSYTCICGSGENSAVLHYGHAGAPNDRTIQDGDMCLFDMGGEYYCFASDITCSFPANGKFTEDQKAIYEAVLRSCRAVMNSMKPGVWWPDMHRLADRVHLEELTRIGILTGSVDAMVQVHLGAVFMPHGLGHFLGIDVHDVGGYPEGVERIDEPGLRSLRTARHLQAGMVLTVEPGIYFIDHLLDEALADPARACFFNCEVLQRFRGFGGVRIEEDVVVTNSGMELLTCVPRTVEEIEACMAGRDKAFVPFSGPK
Experimental: as §1
Prolidase (EC 3.4.13.9) was first described by Bergmann & Fruton (Bergmann, M. & Fruton, J. S., 1937, J Biol. Chem. 189-202). Prolidase releases the N-terminal amino acid from Xaa-Pro dipeptides and has a pH optimum between 6 and 9. Prolidase from porcine kidney (ICN Biomedicals, Eschwege, Germany). was solved (1 mg/mL) in assay buffer (20 mM NH4(CH3COO)2, 3 mM MnCl2, pH 7.6). In order to get a fully active enzyme the solution was incubated for 60 min at room temperature. 450 μL glutaminyl pyrrolidine or glutaminyl thiazolidine in an concentration range of 5*10^−3 M-5*10^−7 M were admixed with 500 μL buffer solution (20 mM NH4(CH3COO)2, pH 7.6) and 250 μL Ile-Pro-OH (0.5 mM in the assay mixture). The assay mixture was pre-incubated at 30° C. for 5 min After pre-incubation, 75 μL Prolidase (1:10 diluted in assay buffer) were added and measurement was performed at 30° C. and λ=220 nm for 20 min using a UV/Vis photometer, UVW (Thermo Spectronic, Cambridge, UK). The IC50-values were calculated using Graphit 4.0.15 (Erithacus Software, Ltd., UK).

Compound	degradation product in vivo [1]	inhibition of POP activity [2]	IC50 [3]
NC(=O)CC[C@H](N)C(=O)N1CCCC1 [glutaminyl pyrrolidine]	pyroglutaminyl pyrrolidine	No inhibition	340 µM
NC(=O)CC[C@H](N)C(=O)N1CCSC1 [glutaminyl thiazolidine]	pyroglutaminyl thiazolidine	No inhibition	> 3000 µM
